Experimental data reported in patent US5677152A, “Nucleic acid amplification using a reersibly inactivated thermostable enzyme” (Roche Molecular Systems, Inc., priority 1996, dated 1997).

Legend:
HIV-1 genomic sequence [1] = experiment: Effect of pre-reaction incubation time on PCR product (HIV-1 model system); format: biochemical; conditions: for amplified product without a pre-reaction incubation (FIG. 4): 0 minutes pre-reaction incubation, compared with extended incubation
Method: Amplifications were carried out using the citraconylated and cis-aconitylated Taq DNA polymerases prepared as described above. For each set of amplification conditions, Taq DNA polymerases modified using a 80-fold and a 160-fold molar excess of citaconic anhydride, and a 90-fold and a 180-fold molar excess of cis-aconitic anhydride were used. Amplifications were carried out using the HIV-1 model system described in Example 6, above, except that the initial pre-reaction incubation was varied. For each enzyme preparation, amplifications were carried out using pre-reaction incubations of 12, 6, 3, and 0 minutes.
As noted above, the pre-reaction incubation step also serves as the initial denaturation step. Each cycle of a PCR begins with a denaturation step. Immediately following the initial pre-reaction incubation carried out at 95° C. for 12, 6, 3, or 0 minutes, each reaction mixture is incubated at 94° C. for 1 minute during the denaturation step of the first cycle. Thus, even when no pre-reaction incubation was used, enzyme activity is recovered during the denaturation step of the initial cycles.
The amplification products were analyzed by agarose gel electrophoresis. The band corresponding to the amplified target sequence is indicated. Bands appearing on the gel other than the band which corresponds to the amplified target sequence correspond to the products generated by the non-specific amplification of non-target sequences.

HIV-1 genomic sequence [2] = experiment: Effect of amplification cycle number on PCR product (HIV-1 model system); format: biochemical; conditions: no pre-reaction incubation; 39, 43, 48, 60 cycles
Method: Amplifications were carried out using the Taq DNA polymerases modified using a 80-fold and a 160-fold molar excess of citraconic anhydride, and a 90-fold and a 180-fold molar excess of cis-aconitic anhydride. The Amplifications were carried out essentially as described above using the HIV-1 model system described in Example 6, except that the initial pre-reaction incubation and cycle numbers were varied. For each enzyme preparation, amplifications were carried out using the following conditions: […]
The amplification products were analyzed by agarose gel electrophoresis.

[3] = system: cloned HTLV-I genomic sequence; experiment: PCR amplification of HTLV-I with citraconylated Taq DNA polymerase, agarose gel analysis; format: biochemical; conditions: 30 copies HTLV-I template; pre-reaction incubation 90° C. for 10 minutes; enzyme dilutions 1/10-1/80
Method: Amplifications were carried out using 1/20, 1/40, and 1/80 dilutions of the 240× modified Taq DNA polymerase described in Example 2. Dilutions were made in a buffer consisting of 20 mM Tris-HCl, pH 8.0 (at room temperature), 100 mM KCl, 0.1 mM EDTA (ethylenediaminetetraacetic acid), 1 mM DTT (dithiothreitol), 50% glycerol, 0.5% Tween 20, 0.5% Nonidet P40 (AmpliTaq®storage buffer, Perkin Elmer, Norwalk, Conn.). For comparison, amplifications also were carried out using 1/10, 1/20, 1/40, and 1/80 dilutions of unmodified Taq DNA polymerase.
A cloned HTLV-I genomic sequence was amplified using primers SK432 and SK111. The primer sequences are provided in U.S. Pat. No. 5,418,149, incorporated herein by reference. The PCR was carried out in a 100 μl reaction volume under the following reaction conditions.
30 copies of HTLV-I DNA template
(§1) 200 μM dATP, dCTP, and dGTP
0.5 μl of citraconylated Taq DNA polymerase solution
(§2) 1 unit of UNG (Perkin Elmer, Norwalk, Conn.) […]
The amplified products were analyzed by 4% agarose gel electrophoresis using a 1× TBE (0.089M Tris, 0.089M boric acid, 0.0025M disodium EDTA) running buffer. Electrophoresis was carried out at 100 volts for approximately 2 hours. Ethidium bromide (0.5 μg/ml) was added following electrophoresis to stain any DNA present. The gel was destained in 1× TBE and the ethidium bromide-stained bands of DNA were visualized using UV irradiation. […]

HIV-1 genomic sequence [4] = experiment: PCR amplification of HIV-1 with citraconylated DNA polymerases, agarose gel analysis; format: biochemical; conditions: 100 copies HIV-1 template; pre-reaction incubation 95° C. for 12 minutes; enzyme dilutions 1/10-1/80
Method: Amplifications were carried out using dilutions of modified DNA polymerases. Dilutions were made in a buffer consisting of 20 mM Tris-HCl, pH 8.0 (at room temperature), 100 mM KCl,0.1 mM EDTA (ethylenediaminetetraacetic acid), 1 mM DTT (dithiothreitol), 50% glycerol, 0.5% Tween 20, 0.5% Nonidet P40 (AmpliTaq® storage buffer, Perkin Elmer, Norwalk, Conn.).
An HIV-1 genomic sequence was amplified using primers SK145 and SK431 (Perkin Elmer, Norwalk, Conn.). The PCR was carried out in a 100 μl reaction volume under the following reaction conditions.
100 copies of HIV-1 DNA template
as §1
0.5 μl of DNA polymerase solution
as §2
The pre-reaction incubation step also serves as the initial denaturation step. An initial denaturation step is routinely used in a typical amplification reaction to insure complete denaturation of the double-stranded target. Each cycle of the PCR begins with a denaturation step of 94° C. for 1 minute. Thus, immediately following the initial pre-reaction incubation carried out at 95° C. for 12 minutes, the reaction mixture is incubated at 94° C. for 1 minute during the denaturation step of the first cycle.
The amplified products were analyzed by agarose gel electrophoresis (100 ml of 3% NuSieve and 0.5% SeaChem) using a 1× TBE (0.089M Tris, 0.089M boric acid, 0.0025M disodium EDTA) running buffer. Electrophoresis was carried out at 100 volts for approximately 1 hour. Ethidium bromide (0.5 μg/ml) was added following electrophoresis to stain any DNA present. The gel was destained in TBE and the ethidium bromide-stained bands of DNA were visualized using UV irradiation.
Dilutions (1/10, 1/20, 1/40, and 1/80) of the citraconylated DNA polymerases described in Example 5 and the 240× citriconylated Taq DNA polymerase described in Example 2 were used in amplifications of HIV-1 nucleic acid and the amplified products were anaylzed by agarose gel electrophoresis. For comparison, amplifications were carried out using dilutions of unmodified Taq DNA polymerase. […]

[5] = Storage stability of inactivated enzyme; format: physicochemical; conditions: stored at 25° C.

Row | Molecule | amplified product without a pre-reaction incubation (FIG. 4) (HIV-1 genomic sequence [1]) | amplified product band over pre-reaction incubation times (FIG. 4) (HIV-1 genomic sequence [1]; pre-reaction incubations of 12, 6, 3 and 0 minutes at 95° C.) | effect of increasing the amplification cycle number on amplified product (FIG. 5) (HIV-1 genomic sequence [2]) | pre-reaction incubation required to obtain the maximum amount of amplified product (HIV-1 genomic sequence [1]; 95° C. pre-reaction incubation) | amplified target band versus non-specific amplification products (FIG. 2) [3] | amplified target band versus non-specific amplification products (FIG. 3) (HIV-1 genomic sequence [4]) | storage stability: time enzyme remains inactivated [5]
1 | cis-aconitylated DNA polymerase: Taq DNA polymerase modified using cis-aconitic anhydride (90× and 180× preparations) | nearly as much product as the amplifications using an extended pre-reaction incubations | all pre-reaction incubation times resulted in a strong band corresponding to amplified product | The effect was smallest | – | – | – | –
2 | citraconylated Taq DNA polymerase: Taq DNA polymerase modified using citraconic anhydride; 240× in Examples 4 and 6, 80× and 160× in Examples 9 and 10 | significantly less amplified product | – | – | at least 3 minutes | significant increase in the intensity of the band corresponding to the amplified target sequence, and a significant decrease in the intensity of the bands corresponding to non-specific amplification products | intense band corresponding to the amplified target sequence for all but the 1/80 dilution | remain inactivated for at least four weeks
3 | unmodified Taq DNA polymerase: Taq DNA polymerase (AmpliTaq®, Perkin Elmer), unmodified comparison enzyme [reference compound] | – | – | – | – | predominantly non-specific amplification product | predominantly non-specific amplification product | –
4 | citraconylated rTth: citraconylated thermostable DNA polymerase from Thermus thermophilus (protein, UniProt P52028 1-834, looked up, citraconylated) DNA polymerase I, thermostable: MEAMLPLFEPKGRVLLVDGHHLAYRTFFALKGLTTSRGEPVQAVYGFAKSLLKALKEDGYKAVFVVFDAKAPSFRHEAYEAYKAGRAPTPEDFPRQLALIKELVDLLGFTRLEVPGYEADDVLATLAKKAEKEGYEVRILTADRDLYQLVSDRVAVLHPEGHLITPEWLWEKYGLRPEQWVDFRALVGDPSDNLPGVKGIGEKTALKLLKEWGSLENLLKNLDRVKPENVREKIKAHLEDLRLSLELSRVRTDLPLEVDLAQGREPDREGLRAFLERLEFGSLLHEFGLLEAPAPLEEAPWPPPEGAFVGFVLSRPEPMWAELKALAACRDGRVHRAADPLAGLKDLKEVRGLLAKDLAVLASREGLDLVPGDDPMLLAYLLDPSNTTPEGVARRYGGEWTEDAAHRALLSERLHRNLLKRLEGEEKLLWLYHEVEKPLSRVLAHMEATGVRLDVAYLQALSLELAEEIRRLEEEVFRLAGHPFNLNSRDQLERVLFDELRLPALGKTQKTGKRSTSAAVLEALREAHPIVEKILQHRELTKLKNTYVDPLPSLVHPRTGRLHTRFNQTATATGRLSSSDPNLQNIPVRTPLGQRIRRAFVAEAGWALVALDYSQIELRVLAHLSGDENLIRVFQEGKDIHTQTASWMFGVPPEAVDPLMRRAAKTVNFGVLYGMSAHRLSQELAIPYEEAVAFIERYFQSFPKVRAWIEKTLEEGRKRGYVETLFGRRRYVPDLNARVKSVREAAERMAFNMPVQGTAADLMKLAMVKLFPRLREMGARMLLQVHDELLLEAPQARAEEVAALAKEAMEKAYPLAVPLEVEVGMGEDWLSAKG | – | – | – | – | – | greater production of specific amplification product than seen in amplifications using unmodified Taq DNA polymerase | –
